Results as given in patent publication US20050208496A1, “Methods of testing for bronchial asthma or chronic obstructive pulmonary disease” (Genox Research, Inc., priority 2002, published 2005).
Like-named read-outs stand apart in the source and are kept apart here.

System: respiratory epithelial cells
[1] = IL-13 vs no stimulation, lot 2 Day 3 AI
[2] = IL-13 vs no stimulation, lot 2 Day 7 AI

## IL-13: human IL-13 (Peprotech, Inc.) added to the medium at 50 ng/mL to stimulate respiratory epithelial cells
[1]
  IGFBP6 (1736_at) expression change: −4.7
  LOH11CR2A (38151_at) expression change: −3.2
  MMP9 (31859_at) expression change: −18
  MMP10 (1006_at) expression change: −30.3
  MSMB (32149_at) expression change: −21.3
  NDRG1 (36933_at) expression change: −2.9
  NOTCH3 (38750_at) expression change: −4.5
  PFTK1 (36502_at) expression change: −2.3
  PSCA (33792_at) expression change: −4.9
  PTK2B (33804_at) expression change: −3.7
  PTPRZ1 (1364_at) expression change: −4.3
  RARRES1 (1042_at) expression change: −3.1
  RARRES1 (33505_at) expression change: −3.5
  RDC1 (34288_at) expression change: −3.7
  RTP801 (39827_at) expression change: −2.3
  S100A8 (41096_at) expression change: −3
  SEC14L2 (32817_at) expression change: −6.9
  SERPINA3 (33825_at) expression change: −7
  SERPINE1 (672_at) expression change: −62.1
  SERPINE1 (38125_at) expression change: −11.2
  STK39 (39120_at) expression change: −2.6
  TSPAN-5 (40990_at) expression change: −3.2
  VRP (38223_at) expression change: −2
  c-fos (1915_s_at) expression change: −2
  c-fos (1916_s_at) expression change: −3.1
[2]
  AGR2 (38827_at) expression change: −3.7
  AKR1B10 (37482_at) expression change: −9.7
  AKR1C3 (37399_at) expression change: −2.8
  ANXA10 (32349_at) expression change: −18.9
  APM2 (32527_at) expression change: −3.3
  BCAS1 (37821_at) expression change: −13.2
  BDKRB2 (39310_at) expression change: −4.2
  BENE (33331_at) expression change: −8.5
  C4.4A (41641_at) expression change: −6.8
  CRA (1230_g_at) expression change: −3
  CTSL2 (40717_at) expression change: −5.6
  DEFB2 (32464_at) expression change: −2.6
  ECM1 (37600_at) expression change: −11
  EPHA1 (1108_s_at) expression change: −3.6
  ETFB (36881_at) expression change: −3.4
  FABP5 (39799_at) expression change: −3
  GABRE (34280_at) expression change: −3.2
  HLA-DPB1 (38095_i_at) expression change: −2.5
  HLA-DPB1 (38096_f_at) expression change: −3.3
  IGFBP6 (1736_at) expression change: −7.2
  IMPA2 (36496_at) expression change: −2.7
  MMP9 (31859_at) expression change: −113.5
  MMP10 (1006_at) expression change: −35.2
  MN1 (37283_at) expression change: −7.3
  MSMB (32149_at) expression change: −8.1
  NCALD (38803_at) expression change: −4.2
  NOTCH3 (38750_at) expression change: −3.5
  PFTK1 (36502_at) expression change: −3.5
  PSCA (33792_at) expression change: −9.2
  PTK2B (33804_at) expression change: −3.5
  PTPRZ1 (1364_at) expression change: −14.9
  RARRES1 (1042_at) expression change: −2.4
  RARRES1 (33505_at) expression change: −3.4
  RDC1 (34288_at) expression change: −3
  RTP801 (39827_at) expression change: −2.4
  S100A8 (41096_at) expression change: −6.1
  SERPINA3 (33825_at) expression change: −9.3
  SERPINB1 (33305_at) expression change: −2.9
  SERPINB5 (862_at) expression change: −2.2
  SERPINE1 (672_at) expression change: −34.4
  SERPINE1 (38125_at) expression change: −11
  STK39 (39120_at) expression change: −2.3
  TSPAN-5 (40990_at) expression change: −6
  VRP (38223_at) expression change: −2.4
  c-fos (1915_s_at) expression change: −2.3
  c-fos (1916_s_at) expression change: −3.6
IMM method, day 3 and day 7, both Lots 1 and 2
  pendrin gene expression level, factor of increase in response to IL-13 stimulation: ≥ 20
Lot 2, Day 3, AI
  pendrin gene (36376_at, AF030880) expression fold change upon IL-13 stimulation, HG-U95A chip: 118.3
Lot 2, Day 7, AI
  pendrin gene (36376_at, AF030880) expression fold change upon IL-13 stimulation, HG-U95A chip: 58.2
Lot 1, Day 3, AI method
  AA149682 (51925_at) expression fold change: 2.9 fold
  AA420479 (52539_at) expression fold change: 3.8 fold
  AA541787 (52622_at) expression fold change: 3.3 fold
  AA582926 (52307_at) expression fold change: 2.4 fold
  ACP5 (677_s_at) expression, fold change upon IL-13 stimulation: −2.8 fold
  ADAM8 (40712_at) expression, fold change upon IL-13 stimulation: 5.8 fold
  ADAM28 (35479_at) expression, fold change upon IL-13 stimulation: 9 fold
  AI310524 (47087_at) expression fold change: 3.6 fold
  AI565105 (54886_at) expression fold change: 2.8 fold
  AI659927 (54033_at) expression fold change: 4.2 fold
  AI718385 (53061_at) expression fold change: 4.6 fold
  AI809925 (53010_at) expression fold change: 3.1 fold
  AI989346 (52327_s_at) expression fold change: 2.9 fold
  AKAP2 (35985_at) expression, fold change upon IL-13 stimulation: 6 fold
  AKAP2 (48035_at) expression fold change: 6.6 fold
  ALOX15 (34636_at) expression, fold change upon IL-13 stimulation: 47.8 fold
  BAL (52167_at) expression fold change: 3.5 fold
  BRCA1 (626_s_at) expression fold change: 9.1 fold
  BST2 (39061_at) expression, fold change upon IL-13 stimulation: 9.9 fold
  C1S (40496_at) expression, fold change upon IL-13 stimulation: 3.3 fold
  C21orf11 (58957_at) expression fold change: 6.6 fold
  CCND3 (1794_at) expression fold change upon IL-13 stimulation: 2.2 fold
  CCND3 (1795_g_at) expression fold change upon IL-13 stimulation: 2.2 fold
  CD47 (37890_at) expression fold change: 2.1 fold
  CDH6 (1620_at) expression fold change upon IL-13 stimulation: 4.3 fold
  CDH6 (57421_at) expression fold change: 3.5 fold
  CDH26 (46916_at) expression fold change: 8.9 fold
  CH25H (32363_at) expression, fold change upon IL-13 stimulation: 9.9 fold
  CLDN1 (46260_at) expression fold change: 2.4 fold
  CLDN4 (35276_at) expression, fold change upon IL-13 stimulation: 2.3 fold
  CTSC (133_at) expression, fold change upon IL-13 stimulation: 3.5 fold
  CXCL16 (44095_at) expression fold change: 2.5 fold
